Assay results reported in patent publication US8822541B2, “Use of targeted nitroxide agents in mitigating or treating radiation injury” (University of Pittsburgh—Of the Commonwealth System of …, priority 2008, dated 2014).

Tested on: 32D cl 3 cells
Test: Clonogenic radiation survival curves of 32D cl 3 cells (PLDR study)
Assay type: cell-based, mouse
Parameters: key to D0: D0 in Gy, from single-hit multitarget model
Method: (§1) 32D cl 3 cells were resuspended at 1×10^5 cells/mL in 10×100-mm tubes and divided into three groups: radiation only, post-irradiation treatment with 10 μM JP4-039, and post-irradiation treatment with 10 μM TEMPO. Cells were irradiated to doses ranging from 0 to 8 Gy and were plated immediately after irradiation.
as §1, with “5×10^5” for “1×10^5”, “then incubated in exponentially growing colonies (flasks) for 24, 48 and 72 h in a high-humidity incubator at 37° C. with 95% air/5% CO2.” for “plated immediately after irradiation.”
32D cl 3 cells were resuspended at 5×10^5 cells/mL in 10×100-mm tubes. Cells were irradiated to doses ranging from 0 to 8 Gy and were then centrifuged at 1500 RPM for 10 minutes and incubated in vertical tubes held tight in pellets with a total of 5×10^5 cells/pellet for 24, 48 and 72 h in a high-humidity incubator at 37° C. with 95% air/5% CO2.
Cells incubated under either logarithmic or PLDR conditions were resuspended at 24, 48 and 72 h after irradiation, and cell viability was assessed using an automated cell viability counter (Beckman Coulter, Fullerton, Calif.). Subsequently, at 24, 48, 72 h, cells in pellets and flasks were resuspended and treated with 10 μM JP4-039, 10 μM TEMPO, or no treatment and were plated in triplicate in semisolid methylcellulose-containing medium at viable cell concentrations ranging from 500-40,000 cells/mL. Cells were incubated in a high-humidity incubator at 37° C. with 95% air/5% CO2 for 7 d and colonies of greater than 50 cells were scored according to published methods (Epperly M W, Gretton J E, Sikora C A, Jefferson M, Bernarding M, Nie S, et al.: Mitochondrial localization of superoxide, dismutase is required for decreasing radiation-induced cellular damage. Radiat Res. 160: 568-578, 2003).
Data from radiation survival curves were analyzed using the linear-quadratic and single-hit, multitarget models (Epperly M, et al., Prevention of late effects of irradiation lung damage by manganese superoxide dismutase gene therapy. Gene Ther. 5: 196-208, 1998). Results are presented as the mean±standard error of the mean from at least three measurements. Student's t test and two-way ANOVA were used to compare means of different groups where appropriate.

[1] = 0 hours, 10 μM post-irradiation

SMILES: CC(C)C[C@@H](/C=C/CC(=O)NC1CC(C)(C)N([O])C(C)(C)C1)NC(=O)OC(C)(C)C [JP4-039, TEMPO-4-yl-(S,E)-5-(tert-butoxycarbonylamino)-7-methyloct-3-enamide]
- D0 [1]: 0.91 ± 0.11
- Ñ [1]: 37.43±7.50
- radiation mitigation (48 or 72 h after irradiation): no statistically significant radiation mitigation
- D0 (24 hours (Flask), 10 μM): 1.22 ± 0.16
- Ñ (24 hours (Flask), 10 μM): 10.35±0.33
- D0 (24 hours (Pellet), 10 μM): 1.12 ± 0.27
- Ñ (24 hours (Pellet), 10 μM): 18.49±3.90
